Assay results published in PMC7617869, “Molecular glues that inhibit deubiquitylase activity and inflammatory signaling” (Nature Structural & Molecular Biology, 2025).
Values joined by “and” are separate entries in the source; they are usually repeats but may differ in a detail not shown here. Equal entries are not always repeated.

What was measured:
BRISC BRCC36 R167A+L169A = BRISC BRCC36 R167A+L169A (Homo sapiens, UniProt P46736+Q15018+Q9NXR7, L169A/R167A); assay: BRISC mutant IQF assay: BRCC36 R167A+L169A; assay type: biochemical; conditions: read-out: Normalised V0
Excerpt: Supplement 41594_2025_1517_MOESM5_ESM.xlsx, sheet "Fig. 4c" | column: Normalised V0

BRISC BRCC36 L169R = BRISC BRCC36 L169R (Homo sapiens, UniProt P46736+Q15018+Q9NXR7, L169R); assay: BRISC mutant IQF assay: BRCC36 L169R; assay type: biochemical
Description: (§1) IQF assays were performed in DUB reaction buffer containing 50 mM HEPES–NaOH pH 7.0, 100 mM NaCl, 0.1 mg ml^−1 BSA, 1 mM DTT and 0.03% v/v Brij-35. […] The final concentration of BRISC WT, all BRISC mutants, HsBRISCΔLoop, MmBRISC and DrBRISCΔNΔC was 1 nM. Other enzymes were tested at the following concentrations: 5 nM ARISC (FL), 10 nM CfBRISCΔNΔC, 250 nM AMSH* (ref. [43]), 500 nM USP2 and 1 μM trypsin (Sigma, 9002-07-7). For Michaelis–Menten experiments, 1 nM BRISC with 0–1 μM IQF K63-linked diubiquitin substrate was used. Michaelis–Menten analyses and Lineweaver–Burk plots were calculated using GraphPad Prism (version 9.0).
(§2) To assess enzymatic activity, BRISC complexes were diluted to concentrations between 1 nM and 50 nM. […] Then, 20-μl enzyme reactions were carried out in 384-well black flat-bottom low-flange plates (Corning, 35373). DUB activity was measured using IQF K63-linked diubiquitin (LifeSensors, DU6303) at 50 nM. Cleaved diubiquitin was monitored by measuring fluorescence intensity (excitation, 544 nm; emission, 575 nm; dichroic mirror, 560 nm). Fluorescence intensity was measured every minute for 30 min at 30 °C. Fluorescence intensity units were plotted against time to generate a linear reaction progress curve, where the initial velocity (V0) corresponds to the gradient of the curve (typically achieved within 15 min). IC50 values were calculated using the GraphPad Prism (version 9.0) built-in dose–response equation for inhibitor concentration versus response (variable slope).

BRISC BRCC36 W130A = BRISC BRCC36 W130A (Homo sapiens, UniProt P46736+Q15018+Q9NXR7, W130A); assay: BRISC mutant IQF assay: BRCC36 W130A; assay type: biochemical
Description: as §1, §2

BRISC Abraxas2 T135K = BRISC Abraxas2 T135K (Homo sapiens, UniProt P46736+Q15018+Q9NXR7, T135K); assay: BRISC mutant IQF assay: Abraxas2 T135K; assay type: biochemical
Description: as §1, §2

BRISC BRCC45 F140A = BRISC BRCC45 F140A (Homo sapiens, UniProt P46736+Q15018+Q9NXR7, F140A); assay: BRISC mutant IQF assay: BRCC45 F140A; assay type: biochemical
Description: as §1, §2

BRISC Abraxas2 T140A = BRISC Abraxas2 T140A (Homo sapiens, UniProt P46736+Q15018+Q9NXR7, T140A); assay: BRISC mutant IQF assay: Abraxas2 T140A; assay type: biochemical
Description: as §1, §2

BRISC BRCC36 L169A = BRISC BRCC36 L169A (Homo sapiens, UniProt P46736+Q15018+Q9NXR7, L169A); assay: BRISC mutant IQF assay: BRCC36 L169A; assay type: biochemical
Description: as §1, §2

MmBRISC = molecular target: T1, MmBRISC (Mus musculus, UniProt P46737+Q3TCJ1+Q8K3W0); assay: MmBRISC IQF DUB activity assay; assay type: biochemical; conditions: read-out: Normalised V0
T1 construct: made in house; host or cells: Trichoplusia ni cells (Bac-to-Bac, pFastBac-HTB)
T1 sequence (P46737 whole entry): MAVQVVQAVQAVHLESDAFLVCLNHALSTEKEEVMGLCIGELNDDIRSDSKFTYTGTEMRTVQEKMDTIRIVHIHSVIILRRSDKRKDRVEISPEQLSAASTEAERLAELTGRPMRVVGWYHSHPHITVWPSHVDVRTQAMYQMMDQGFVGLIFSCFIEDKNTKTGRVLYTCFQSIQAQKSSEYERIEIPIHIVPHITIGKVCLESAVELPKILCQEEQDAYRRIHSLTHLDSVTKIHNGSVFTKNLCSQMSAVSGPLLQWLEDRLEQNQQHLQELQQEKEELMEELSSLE
T1 sequence (Q3TCJ1 whole entry): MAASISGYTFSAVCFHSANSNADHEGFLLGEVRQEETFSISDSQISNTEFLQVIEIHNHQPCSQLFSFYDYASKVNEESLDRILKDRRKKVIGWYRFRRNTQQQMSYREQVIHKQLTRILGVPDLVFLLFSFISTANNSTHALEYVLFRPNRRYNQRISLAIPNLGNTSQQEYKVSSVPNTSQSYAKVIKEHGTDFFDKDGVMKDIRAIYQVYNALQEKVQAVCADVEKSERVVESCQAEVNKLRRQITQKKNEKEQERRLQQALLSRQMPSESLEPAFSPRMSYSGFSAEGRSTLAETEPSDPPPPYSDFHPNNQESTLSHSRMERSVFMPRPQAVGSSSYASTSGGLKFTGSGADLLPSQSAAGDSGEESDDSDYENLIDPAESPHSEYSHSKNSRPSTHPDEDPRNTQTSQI
T1 sequence (Q8K3W0 whole entry): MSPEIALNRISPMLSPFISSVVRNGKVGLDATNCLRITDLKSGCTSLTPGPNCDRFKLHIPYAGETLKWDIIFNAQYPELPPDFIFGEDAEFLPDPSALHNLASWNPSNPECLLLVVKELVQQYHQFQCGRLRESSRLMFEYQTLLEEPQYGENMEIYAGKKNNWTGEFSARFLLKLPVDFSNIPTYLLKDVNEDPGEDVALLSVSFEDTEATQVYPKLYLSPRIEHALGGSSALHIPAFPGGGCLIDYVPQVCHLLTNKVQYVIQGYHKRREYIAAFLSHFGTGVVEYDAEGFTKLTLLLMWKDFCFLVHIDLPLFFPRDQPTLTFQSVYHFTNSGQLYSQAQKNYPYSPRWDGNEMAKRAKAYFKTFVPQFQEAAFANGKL
T1 sequence (Q3UI43 whole entry partner): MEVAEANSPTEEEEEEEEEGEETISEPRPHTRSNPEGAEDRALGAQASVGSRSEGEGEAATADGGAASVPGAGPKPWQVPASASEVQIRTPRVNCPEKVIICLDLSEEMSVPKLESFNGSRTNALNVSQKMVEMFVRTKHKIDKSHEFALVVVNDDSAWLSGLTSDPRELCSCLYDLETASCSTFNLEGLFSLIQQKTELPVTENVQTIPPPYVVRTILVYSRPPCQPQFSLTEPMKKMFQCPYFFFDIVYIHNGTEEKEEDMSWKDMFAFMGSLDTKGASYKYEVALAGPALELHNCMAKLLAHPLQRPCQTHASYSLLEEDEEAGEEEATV
Description: as §1, §2

CfBRISCΔNΔC = CfBRISCΔNΔC IQF DUB activity assay; assay type: biochemical, ant (Camponotus floridanus); conditions: for Normalised V0: CfBRISCΔNΔC
Description: as §1, §2

[1] = FX-171-C 0.0035 μM, read-out: Normalised V0
[2] = FX-171-C 0.035 μM, read-out: Normalised V0
[3] = FX-171-C 0.35 μM, read-out: Normalised V0
[4] = FX-171-C 3.1 μM, read-out: Normalised V0
[5] = FX-171-C 25 μM, read-out: Normalised V0
[6] = FX-171-C 12.5 μM, read-out: Normalised V0
[7] = FX-171-C 50 μM, read-out: Normalised V0
[8] = FX-171-C 100 μM, read-out: Normalised V0

O=C(NC1C2CNCC21)c1nn(C(=O)c2c(Cl)cccc2Cl)cc1NC(=O)c1c(Cl)cccc1Cl (stereo not shown) [FX-171-C]
remaining activity at 0.35 µM (BRISC BRCC36 R167A+L169A; FX-171-C 0.35 μM): 98.6%
remaining activity at 25 µM (BRISC BRCC36 R167A+L169A; FX-171-C 25 μM): 85.6%
IC50 (BRISC BRCC36 L169R): 75 µM
reduction of inhibition over wild-type complex (BRISC BRCC36 L169R): > 100 fold
remaining activity at 0.0035 µM (BRISC BRCC36 L169R; [1]): 98.8%
remaining activity at 0.035 µM (BRISC BRCC36 L169R; [2]): 96.8%
remaining activity at 0.35 µM (BRISC BRCC36 L169R; [3]): 93.7%
remaining activity at 3.1 µM (BRISC BRCC36 L169R; [4]): 89.5%
remaining activity at 25 µM (BRISC BRCC36 L169R; [5]): 88%
IC50 (BRISC BRCC36 W130A): 23 µM
remaining activity at 0.0035 µM (BRISC BRCC36 W130A; [1]): 95.2%
remaining activity at 0.035 µM (BRISC BRCC36 W130A; [2]): 96.5%
remaining activity at 12.5 µM (BRISC BRCC36 W130A; [6]): 67.5%
remaining activity at 50 µM (BRISC BRCC36 W130A; [7]): 40.4%
remaining activity at 100 µM (BRISC BRCC36 W130A; [8]): 21%
IC50 (BRISC Abraxas2 T135K): 1.5 µM
inhibitor sensitivity vs BRISC WT (BRISC Abraxas2 T135K): moderate to little effect on inhibitor sensitivity
remaining activity at 0.35 µM (BRISC Abraxas2 T135K; [3]): 73.4%
remaining activity at 3.1 µM (BRISC Abraxas2 T135K; [4]): 20.9%
IC50 (BRISC BRCC45 F140A): 4.3 µM
inhibitor sensitivity vs BRISC WT (BRISC BRCC45 F140A): reduced sensitivity to inhibition
remaining activity at 0.0035 µM (BRISC BRCC45 F140A; [1]): 96%
remaining activity at 0.035 µM (BRISC BRCC45 F140A; [2]): 92.5%
remaining activity at 0.35 µM (BRISC BRCC45 F140A; [3]): 89.9%
remaining activity at 3.1 µM (BRISC BRCC45 F140A; [4]): 51.2%
remaining activity at 6.25 µM (BRISC BRCC45 F140A; FX-171-C 6.25 μM, read-out: Normalised V0): 43.9%
remaining activity at 12.5 µM (BRISC BRCC45 F140A; [6]): 26.9%
remaining activity at 25 µM (BRISC BRCC45 F140A; [5]): 14.2%
remaining activity at 100 µM (BRISC BRCC45 F140A; [8]): 5.06%
IC50 (BRISC Abraxas2 T140A; Abraxas 2 T140A): 5 µM
inhibitor sensitivity vs BRISC WT (BRISC Abraxas2 T140A; Abraxas 2 T140A): IC50 tenfold higher than BRISC WT
remaining activity at 0.0035 µM (BRISC Abraxas2 T140A; Abraxas2 T140A, FX-171-C 0.0035 μM, read-out: Normalised V0): 89.1%
remaining activity at 0.35 µM (BRISC Abraxas2 T140A; Abraxas2 T140A, FX-171-C 0.35 μM, read-out: Normalised V0): 99.5%
remaining activity at 3.1 µM (BRISC Abraxas2 T140A; Abraxas2 T140A, FX-171-C 3.1 μM, read-out: Normalised V0): 53.4%
IC50 (BRISC BRCC36 L169A): 33 µM
reduction of inhibition over wild-type complex (BRISC BRCC36 L169A): > 100 fold
remaining activity at 0.035 µM (BRISC BRCC36 L169A; [2]): 94.7%
remaining activity at 3.1 µM (BRISC BRCC36 L169A; [4]): 98.4%
remaining activity at 50 µM (BRISC BRCC36 L169A; [7]): 40.6%
remaining activity at 100 µM (BRISC BRCC36 L169A; [8]): 22.1%
remaining activity at 200 µM (BRISC BRCC36 L169A; FX-171-C 200 μM, read-out: Normalised V0): 10.5%
remaining activity at 0.02 µM (MmBRISC; FX-171-C 0.02 μM): 101%
remaining activity at 0.0399999 µM (MmBRISC; FX-171-C 0.0399999 μM): 89.4%
remaining activity at 0.0599997 µM (MmBRISC; FX-171-C 0.0599997 μM): 106%
remaining activity at 0.0799994 µM (MmBRISC; FX-171-C 0.0799994 μM): 102%
remaining activity at 0.119998 µM (MmBRISC; FX-171-C 0.119998 μM): 107%
remaining activity at 0.199996 µM (MmBRISC; FX-171-C 0.199996 μM): 106%
remaining activity at 0.499975 µM (MmBRISC; FX-171-C 0.499975 μM): 94.9%
remaining activity at 0.799937 µM (MmBRISC; FX-171-C 0.799937 μM): 98%
remaining activity at 1.25984 µM (MmBRISC; FX-171-C 1.25984 μM): 89.8%
remaining activity at 1.9996 µM (MmBRISC; FX-171-C 1.9996 μM): 97.6%
remaining activity at 3.159 µM (MmBRISC; FX-171-C 3.159 μM): 92.5%
remaining activity at 5.19739 µM (MmBRISC; FX-171-C 5.19739 μM): 87.1%
remaining activity at 7.99364 µM (MmBRISC; FX-171-C 7.99364 μM): 68.2%
remaining activity at 12.7839 µM (MmBRISC; FX-171-C 12.7839 μM): 57.7%
remaining activity at 19.96 µM (MmBRISC; FX-171-C 19.96 μM): 43.1%
remaining activity at 31.4999 µM (MmBRISC; FX-171-C 31.4999 μM): 34%
remaining activity at 50.147 µM (MmBRISC; FX-171-C 50.147 μM): 24.4%
remaining activity at 79.7601 µM (MmBRISC; FX-171-C 79.7601 μM): 22.6%
remaining activity at 125.99 µM (MmBRISC; FX-171-C 125.99 μM): 12%
inhibition of ant BRISC (CfBRISCΔNΔC): no inhibition
Normalised V0 (CfBRISCΔNΔC; FX-171-C 0.013 μM): 0.8962 and 0.9603 and 0.9451 and 1.01 and 0.9065 and 0.9614
Normalised V0 (CfBRISCΔNΔC; FX-171-C 0.02 μM): 0.8823 and 0.9398 and 0.9125
Normalised V0 (CfBRISCΔNΔC; FX-171-C 0.0399999 μM): 0.8374 and 1.085 and 0.922
Normalised V0 (CfBRISCΔNΔC; FX-171-C 0.0599997 μM): 0.96 and 0.9545 and 0.8432
Normalised V0 (CfBRISCΔNΔC; FX-171-C 0.0799994 μM): 0.96 and 1.021 and 0.8317
Normalised V0 (CfBRISCΔNΔC; FX-171-C 0.119998 μM): 0.912 and 0.9545 and 0.6902
Normalised V0 (CfBRISCΔNΔC; FX-171-C 0.199996 μM): 0.9393 and 1.029 and 0.809
Normalised V0 (CfBRISCΔNΔC; FX-171-C 0.499975 μM): 0.8932 and 0.9706 and 1.16
Normalised V0 (CfBRISCΔNΔC; FX-171-C 0.799937 μM): 0.8483 and 0.9187 and 0.8448
Normalised V0 (CfBRISCΔNΔC; FX-171-C 1.25984 μM): 0.9211 and 1.122 and 1.015
Normalised V0 (CfBRISCΔNΔC; FX-171-C 1.9996 μM): 0.9132 and 0.9123 and 0.84
Normalised V0 (CfBRISCΔNΔC; FX-171-C 3.159 μM): 0.9417 and 1.133 and 0.9365
Normalised V0 (CfBRISCΔNΔC; FX-171-C 5.19739 μM): 0.9697 and 1.085 and 0.6282
Normalised V0 (CfBRISCΔNΔC; FX-171-C 7.99364 μM): 0.932 and 1.064 and 1.2693
Normalised V0 (CfBRISCΔNΔC; FX-171-C 12.7839 μM): 1.03 and 1.045 and 0.7909
Normalised V0 (CfBRISCΔNΔC; FX-171-C 19.96 μM): 1.048 and 1.129 and 1.039
Normalised V0 (CfBRISCΔNΔC; FX-171-C 31.4999 μM): 0.9199 and 1.137 and 0.9151
Normalised V0 (CfBRISCΔNΔC; FX-171-C 50.147 μM): 0.8823 and 1.1 and 0.9082
Normalised V0 (CfBRISCΔNΔC; FX-171-C 79.7601 μM): 0.9478 and 0.9802 and 1.294
Normalised V0 (CfBRISCΔNΔC; FX-171-C 125.99 μM): 0.8064 and 1.008 and 0.9331
Normalised V0 (CfBRISCΔNΔC; FX-171-C 199.922 μM): 1.048 and 0.9667 and 0.9357
